Results reported in patent publication US20130059783A1, “COMPOSITIONS AND METHODS FOR EXPANDING BFU-E CELLS” (priority 2010, published 2013).

System: mRNA expression in BFU-E cells
Assay: mRNA-Seq of BFU-E cells cultured 4 hours with or without Dex (Table S3)
Format: cell-based, mouse
Details: for Expression level log2((100 nM DEX)* (0 nM DEX)) / Expression of mRNA in BFU-E after 4 h 100 nM DEX (RPKM) / Expression change log2 ((100 nM DEX)/(0 nM DEX)) / Expression change log2 ((100 nM DEX)/(0 nM DEX))2: BFU-E, 4 h; for Expression change log2 ((100 nM DEX)/(0 nM DEX)): 100 nM vs 0 nM DEX
Text: FIGS. 2A-2B. The effect of glucocorticoids on miRNA and mRNA expression in BFU-E cells determined by next generation sequencing. […] Both mRNAs and miRNAs were subjected to Illumina deep sequencing. […] (B) A plot similar to that in A for expression of individual mRNAs. mRNA expression was normalized using the RPKM method, which determines the relative expression of each gene to all expressed genes by giving each gene an RPKM count (number of uniquely aligning reads per kb exon per million total reads). […]
To minimize the risk of false positive GC target genes we chose to compare only highly expressed genes (≈10,000 genes with a multiplied RPKM count >4) (Mortazavi et al., 2008).
Samples for Paired-End mRNA-Seq were prepared using the Solexa kit according to the manufacturer's instructions with the exception that we extracted 300 bp bands, before and after the PCR step (Illumina). Images acquired from the Solexa sequencer were processed through the bundled Solexa image extraction pipeline version 1.4. mRNA-Seq reads were aligned to mouse NCBI build 37 (mm9) using ELAND, Briefly, the first 32 bases of a read were used as a seed. Each matched seed was then extended up to 36 bases and scored to break any ties between multi-matches. For mRNA expression counts, unique reads in the genome that landed within any exons of NCBI gene models (v37.1) were counted. The counts were normalized by the mRNA length to get the final RPKM values (i.e. reads per KB per million reads).

[1] = BFU-E cells, 4 hours, 100 nM Dex
[2] = gene 38413 (membrane-associated ring finger (C3HC4) 3)

`C[C@@H]1C[C@H]2[C@@H]3CCC4=CC(=O)C=C[C@]4(C)[C@@]3(F)[C@@H](O)C[C@]2(C)[C@@]1(O)C(=O)CO` [Dex, dexamethasone] was tested, and the “Upregulation of Ddit4” value (BFU-E cells, 4 hours) was > 8 fold, the “Genes differentially expressed (more than a factor of 2)” value [1] was 195 genes and the “Genes down regulated (more than a factor of 2)” value [1] was 112 genes. The “Genes up regulated (more than a factor of 2)” value [1] was 83 genes, the “Expression level log2((100 nM DEX)* (0 nM DEX))” value [2] was 4.94 and the “Expression of mRNA in BFU-E after 4 h 100 nM DEX (RPKM)” value (from here on “Expression of mRNA in BFU-E”) [2] was 8.25 RPKM. For the same molecule, the “Expression of mRNA in BFU-E” value (gene 0610040J01Rik) was 14.77 RPKM, the “Expression change log2 ((100 nM DEX)/(0 nM DEX))” value (gene 0610040J01Rik) was 2.84 and the “Expression of mRNA in BFU-E” value (gene Acp5) was 20.40 RPKM. For the same molecule, the “Expression change log2 ((100 nM DEX)/(0 nM DEX))” value (gene Acp5) was 2.70, the “Expression of mRNA in BFU-E” value (gene Ampd3) was 15.71 RPKM and the “Expression of mRNA in BFU-E” value (gene Ank) was 48.60 RPKM. The “Expression change log2 ((100 nM DEX)/(0 nM DEX))” value (gene Ank) was 2.06, the “Expression change log2 ((100 nM DEX)/(0 nM DEX))2” value (gene Aqp3) was 1.34 and the “Expression of mRNA in BFU-E” value (gene Aqp3) was 6.98 RPKM. The “Expression of mRNA in BFU-E” value (gene Arhgef3) was 16.21 RPKM, the “Expression change log2 ((100 nM DEX)/(0 nM DEX))” value (gene Arhgef3) was 2.88 and the “Expression level log2((100 nM DEX)* (0 nM DEX))” value (gene Atp2b4) was 9.79. The “Expression of mRNA in BFU-E” value (gene Atp2b4) was 43.89 RPKM, the “Expression of mRNA in BFU-E” value (gene Bcl2) was 6.45 RPKM and the “Expression change log2 ((100 nM DEX)/(0 nM DEX))” value (gene Bcl2) was 1.69. For the same molecule, the “Expression of mRNA in BFU-E” value (gene Cables1) was 4.90 RPKM, the “Expression change log2 ((100 nM DEX)/(0 nM DEX))2” value (gene Ccnd1) was 1.34 and the “Expression level log2((100 nM DEX)* (0 nM DEX))” value (gene Ccnd1) was 3.76. For the same molecule, the “Expression of mRNA in BFU-E” value (gene Ccnd1) was 5.86 RPKM, the “Expression level log2((100 nM DEX)* (0 nM DEX))” value (gene Cd59a) was 2.18 and the “Expression of mRNA in BFU-E” value (gene Cd59a) was 3.15 RPKM. For the same molecule, the “Expression of mRNA in BFU-E” value (gene Clca1) was 7.54 RPKM, the “Expression change log2 ((100 nM DEX)/(0 nM DEX))” value (gene Clca1) was 2.07 and the “Expression level log2((100 nM DEX)* (0 nM DEX))” value (gene Clcn2) was 5.04. The “Expression of mRNA in BFU-E” value (gene Clcn2) was 8.78 RPKM, the “Expression level log2((100 nM DEX)* (0 nM DEX))” value (gene Clint1) was 15.15 and the “Expression of mRNA in BFU-E” value (gene Clint1) was 285.78 RPKM. For the same molecule, the “Expression of mRNA in BFU-E” value (gene Clstn1) was 70.51 RPKM, the “Expression change log2 ((100 nM DEX)/(0 nM DEX))” value (gene Clstn1) was 1.72 and the “Expression level log2((100 nM DEX)* (0 nM DEX))” value (gene Cyth3) was 11.35. The “Expression of mRNA in BFU-E” value (gene Cyth3) was 75.31 RPKM, the “Expression of mRNA in BFU-E” value (gene Ddit4) was 20.23 RPKM and the “Expression change log2 ((100 nM DEX)/(0 nM DEX))” value (gene Ddit4) was 3.08. For the same molecule, the “Expression level log2((100 nM DEX)* (0 nM DEX))” value (gene E430018J23Rik) was 2.10, the “Expression of mRNA in BFU-E” value (gene E430018J23Rik) was 3.02 RPKM and the “Expression of mRNA in BFU-E” value (gene Egln3) was 16.47 RPKM. For the same molecule, the “Expression change log2 ((100 nM DEX)/(0 nM DEX))” value (gene Egln3) was 3.00, the “Expression of mRNA in BFU-E” value (gene Egr1) was 18.06 RPKM and the “Expression of mRNA in BFU-E” value (gene Fam46a) was 6.44 RPKM. For the same molecule, the “Expression change log2 ((100 nM DEX)/(0 nM DEX))” value (gene Fam46a) was 1.68, the “Expression of mRNA in BFU-E” value (gene Fam46c) was 13.90 RPKM and the “Expression level log2((100 nM DEX)* (0 nM DEX))” value (gene Fam55c) was 5.91. For the same molecule, the “Expression of mRNA in BFU-E” value (gene Fam55c) was 11.20 RPKM, the “Expression of mRNA in BFU-E” value (gene Fam83g) was 8.67 RPKM and the “Expression level log2((100 nM DEX)* (0 nM DEX))” value (gene Fes) was 2.34. For the same molecule, the “Expression of mRNA in BFU-E” value (gene Fes) was 3.48 RPKM, the “Expression of mRNA in BFU-E” value (gene Fkbp5) was 74.76 RPKM and the “Expression change log2 ((100 nM DEX)/(0 nM DEX))” value (gene Fkbp5) was 1.71. For the same molecule, the “Expression level log2((100 nM DEX)* (0 nM DEX))” value (gene Fkbp11) was 9.88, the “Expression of mRNA in BFU-E” value (gene Fkbp11) was 44.44 RPKM and the “Expression of mRNA in BFU-E” value (gene Frmd4a) was 28.77 RPKM. The “Expression change log2 ((100 nM DEX)/(0 nM DEX))” value (gene Frmd4a) was 2.03, the “Expression level log2((100 nM DEX)* (0 nM DEX))” value (gene Glul) was 12.54 and the “Expression of mRNA in BFU-E” value (gene Glul) was 110.54 RPKM. The “Expression change log2 ((100 nM DEX)/(0 nM DEX))2” value (gene Gm129) was 1.01, the “Expression level log2((100 nM DEX)* (0 nM DEX))” value (gene Gm129) was 2.29 and the “Expression of mRNA in BFU-E” value (gene Gm129) was 3.14 RPKM. The “Expression of mRNA in BFU-E” value (gene Gna14) was 3.37 RPKM, the “Expression level log2((100 nM DEX)* (0 nM DEX))” value (gene Gng13) was 3.81 and the “Expression of mRNA in BFU-E” value (gene Gng13) was 5.76 RPKM. The “Expression of mRNA in BFU-E” value (gene Gsta4) was 9.00 RPKM, the “Expression change log2 ((100 nM DEX)/(0 nM DEX))” value (gene Gsta4) was 2.60 and the “Expression of mRNA in BFU-E” value (gene Hif3a) was 101.46 RPKM. For the same molecule, the “Expression change log2 ((100 nM DEX)/(0 nM DEX))” value (gene Hif3a) was 1.38, the “Expression of mRNA in BFU-E” value (gene Hopx) was 13.32 RPKM and the “Expression change log2 ((100 nM DEX)/(0 nM DEX))” value (gene Hopx) was 1.82. The “Expression of mRNA in BFU-E” value (gene Hp) was 4.41 RPKM, the “Expression change log2 ((100 nM DEX)/(0 nM DEX))2” value (gene Ier2) was 1.05 and the “Expression level log2((100 nM DEX)* (0 nM DEX))” value (gene Ier2) was 10.07. The “Expression of mRNA in BFU-E” value (gene Ier2) was 47.27 RPKM, the “Expression level log2((100 nM DEX)* (0 nM DEX))” value (gene Ier3) was 3.80 and the “Expression of mRNA in BFU-E” value (gene Itgb3) was 7.39 RPKM. The “Expression change log2 ((100 nM DEX)/(0 nM DEX))” value (gene Itgb3) was 2.37.
